These results are taken from patent US20110086759A1, “CHEMICAL COMPOUNDS” (SYNGENTA CROP PROTECTION, INC., priority 2007, published 2011).

What all share (type): in vivo
For test [1], the system named is Solanum nigrum (SOLNI). Briefly: Pre-emergence biological efficacy, glasshouse pot test. The settings on record: 312 h, pre-emergence, 1,000 g/ha, evaluated after 13 days (100=total damage; 0=no damage), read-out: Percentage damage SOLNI. In outline:
(§1)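 Seeds sown in standard soil in pots, held one day in glasshouse (24/16 °C day/night, 14 h light, 65% humidity), then sprayed with aqueous solution from acetone/water (50:50) formulation with 0.5% Tween 20 at 1000 or 250 g/ha. Damage scored after 13 days (0 = none, 100 = total).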

The test system of test [2] is Amaranthus retoflexus (AMARE). The description is as above. The note with it: Amaranthus retroflexus, 312 h; pre-emergence, 1,000 g/ha, evaluated after 13 days (100=total damage; 0=no damage); read-out: Percentage damage AMARE. In outline: as §1
The test system of test [3] is Alopecurus myosuroides (ALOMY). Described as above. The note with it: 312 h, pre-emergence, 1,000 g/ha, evaluated after 13 days (100=total damage; 0=no damage), read-out: Percentage damage ALOMY. In outline: as §1
The subject of test [4] is Setaria faberi (SETFA). The description is as above. The settings on record: 312 h, pre-emergence, 1,000 g/ha, evaluated after 13 days (100=total damage; 0=no damage), read-out: Percentage damage SETFA. In outline: as §1
Test [5] relates to Ipomea hederaceae (IPOHE). Described as above. The settings on record: Ipomoea hederacea, 312 h; pre-emergence, 1,000 g/ha, evaluated after 13 days (100=total damage; 0=no damage); read-out: Percentage damage IPOHE. Put shortly: as §1
In test [6] the test system is Echinochloa crus-galli (ECHCG). The description is as above. The settings on record: 312 h, pre-emergence, 1,000 g/ha, evaluated after 13 days (100=total damage; 0=no damage), read-out: Percentage damage ECHCG. In outline:
as §1

The test system of test [7] is Solanum nigrum (SOLNI). Briefly: Post-emergence biological efficacy, glasshouse pot test. The settings on record: 312 h, post-emergence, 1,000 g/ha, evaluated after 13 days (100=total damage; 0=no damage), read-out: Percentage damage caused to weed species, SOLNI. In outline: (§2)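 Plants were sown in standard soil and grown 8 days in a glasshouse (24/16° C. day/night, 14 hours light, 65% humidity), then sprayed post-emergence at 1000 or 250 g/ha from acetone/water (50:50) with 0.5% Tween 20. Damage was scored visually after 13 days (0 = none, 100 = total).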

Test [8] has as its system Amaranthus retoflexus (AMARE). The description is as above. The note with it: Amaranthus retroflexus, 312 h; post-emergence, 1,000 g/ha, evaluated after 13 days (100=total damage; 0=no damage); read-out: Percentage damage caused to weed species, AMARE. Put shortly: as §2
Test [9] relates to Alopecurus myosuroides (ALOMY). The description is as above. The note with it: 312 h, post-emergence, 1,000 g/ha, evaluated after 13 days (100=total damage; 0=no damage), read-out: Percentage damage caused to weed species, ALOMY. Put shortly:
as §2

Test [10] concerns Setaria faberi (SETFA). Described as above. The note with it: 312 h, post-emergence, 1,000 g/ha, evaluated after 13 days (100=total damage; 0=no damage), read-out: Percentage damage caused to weed species, SETFA. Put shortly:
as §2

For test [11], the system named is Ipomea hederaceae (IPOHE). Described as above. The note with it: Ipomoea hederacea, 312 h; post-emergence, 1,000 g/ha, evaluated after 13 days (100=total damage; 0=no damage); read-out: Percentage damage caused to weed species, IPOHE. Put shortly:
as §2

Test [12] relates to Echinochloa crus-galli (ECHCG). Described as above. The note with it: 312 h, post-emergence, 1,000 g/ha, evaluated after 13 days (100=total damage; 0=no damage), read-out: Percentage damage caused to weed species, ECHCG. Put shortly: as §2

`O=C(O)c1nc(C2CC2)nc(NCc2c(Cl)cccc2Cl)c1Cl` [Compound 1-104, 5-Chloro-2-cyclopropyl-4-(2,6-dichlorophenyl-methylamino)-pyrimidine-6-carboxylic acid]: the pest or weed control at 1000 g/ha (in the test on Solanum nigrum (SOLNI) [1]; in test [2]; in test [3]; in the test on Setaria faberi (SETFA) [4]; in test [5]; in test [6]) was 0% throughout. Further, the pest or weed control at 1000 g/ha with Solanum nigrum (SOLNI) [7] was 50%; in test [8], 60%; in test [9], 0%; in the test on Setaria faberi (SETFA) [10], 0%; in test [11], 60%; in test [12], 0%.

In the case of `COc1ccc(CNc2nc(C3CC3)nc(C(=O)O)c2Cl)c(OC)c1` [Compound 1-110, 5-Chloro-2-cyclopropyl-4-(2,4-dimethoxyphenyl-methylamino)-pyrimidine-6-carboxylic acid], the pest or weed control at 1000 g/ha amounted to 60% in the test with Solanum nigrum (SOLNI) [1]; 100% in test [2]; 40% in test [3]; 30% with Setaria faberi (SETFA) [4]; 90% in test [5]; 20% in test [6]. For the same compound, the pest or weed control at 1000 g/ha was 80% with Solanum nigrum (SOLNI) [7]; 100% in test [8]; 30% in [9]; 80% in the test on Setaria faberi (SETFA) [10]; 80% in test [11]; 50% in test [12].

Turning to `Cc1ccc(CNc2nc(C3CC3)nc(C(=O)O)c2Cl)o1` [Compound 1-135, 5-Chloro-2-cyclopropyl-4-(5-methylfuran-2-ylmethylamino)-pyrimidine-6-carboxylic acid], the pest or weed control at 1000 g/ha in the test on Solanum nigrum (SOLNI) [1] stood at 100%; in test [2], 100%; in test [3] it was 80%; in the test on Setaria faberi (SETFA) [4], 90%; in test [5] it was 100%; in test [6] it was 90%. The pest or weed control at 1000 g/ha in the test on Solanum nigrum (SOLNI) [7] stood at 100%; in test [8], 100%; in [9], 80%; in the test with Setaria faberi (SETFA) [10], 80%; in test [11] it was 100%; in test [12] it was 70%.

As for `Cc1cccnc1CNc1nc(C2CC2)nc(C(=O)O)c1Cl` [Compound 1-153, 5-Chloro-2-cyclopropyl-4-(3-methylpyridin-2-ylmethylamino)-pyrimidine-6-carboxylic acid], the pest or weed control at 1000 g/ha in the test on Solanum nigrum (SOLNI) [1] worked out at 90%; in [2], 100%; in test [3] it was 40%; with Setaria faberi (SETFA) [4], 70%; in test [5], 100%; in test [6], 50%. Moreover, the pest or weed control at 1000 g/ha in the test on Solanum nigrum (SOLNI) [7] stood at 90%; in [8] it was 100%; in test [9], 50%; in the test with Setaria faberi (SETFA) [10], 90%; in [11], 70%; in test [12], 60%.

For `CC(Nc1nc(C2CC2)nc(C(=O)O)c1Cl)c1ccc(Cl)cc1` (stereo not drawn) [Compound 1-176, 5-Chloro-4-[1-(4-chlorophenyl)ethyl-amino]-2-cyclopropyl-pyrimidine-6-carboxylic acid], the pest or weed control at 1000 g/ha (in the test on Solanum nigrum (SOLNI) [1]; in test [2]; in test [3]; with Setaria faberi (SETFA) [4]; in test [5]; in test [6]) was 0% throughout. The pest or weed control at 1000 g/ha was determined as 60% with Solanum nigrum (SOLNI) [7]; 40% in test [8]; 10% in test [9]; 20% in the test on Setaria faberi (SETFA) [10]; 40% in test [11]; 10% in test [12].

For `COC(=O)c1nc(C2CC2)nc(NC2CC2)c1Cl` [Compound 4-1, 5-Chloro-2-cyclopropyl-4-cyclopropylamino-6-methoxycarbonyl-pyrimidine], the pest or weed control at 1000 g/ha worked out at 100% in the test on Solanum nigrum (SOLNI) [1]; 100% in [2]; 40% in test [3]; 60% in the test with Setaria faberi (SETFA) [4]; 90% in test [5]; 50% in test [6]. The pest or weed control at 1000 g/ha in the test with Solanum nigrum (SOLNI) [7] worked out at 100%; in test [8], 100%; in test [9], 60%; with Setaria faberi (SETFA) [10], 80%; in [11], 90%; in [12] it was 60%.

Take `COC(=O)c1nc(C2CC2)nc(NC2(c3ccc(Cl)cc3)CC2)c1Cl` [Compound 4-5, 5-Chloro-4-[1-(4-chlorophenyl)cyclo-propylamino]-2-cyclopropyl-6-methoxycarbonyl-pyrimidine]: the pest or weed control at 1000 g/ha in the test on Solanum nigrum (SOLNI) [1] was determined as 0%; in [2] it was 40%; in test [3], 0%; with Setaria faberi (SETFA) [4], 0%; in [5], 40%; in test [6], 0%. Besides, the pest or weed control at 1000 g/ha in the test with Solanum nigrum (SOLNI) [7] was 80%; in [8] it was 100%; in test [9], 20%; with Setaria faberi (SETFA) [10], 40%; in [11] it was 70%; in test [12], 0%.

On to `COC(=O)c1nc(C2CC2)nc(NC2(c3ccc(Cl)cc3Cl)CC2)c1Cl` [Compound 4-6], for which the pest or weed control at 1000 g/ha was determined as 20% in the test on Solanum nigrum (SOLNI) [1]; 40% in [2]; 0% in test [3]; 0% in the test with Setaria faberi (SETFA) [4]; 10% in test [5]; 0% in test [6]. The pest or weed control at 1000 g/ha in the test with Solanum nigrum (SOLNI) [7] was 40%; in test [8], 100%; in [9], 20%; with Setaria faberi (SETFA) [10], 0%; in test [11], 60%; in [12], 20%.

For the compound `COC(=O)c1nc(C2CC2)nc(NC2(c3ccccn3)CC2)c1Cl` [Compound 4-10, 5-Chloro-2-cyclopropyl-6-methoxycarbonyl-4-(1-pyrid-2-ylcyclo-propylamino)-pyrimidine], the pest or weed control at 1000 g/ha in the test with Solanum nigrum (SOLNI) [1] was 20%; in test [2] it was 30%; in [3], 0%; in the test on Setaria faberi (SETFA) [4], 0%; in test [5], 80%; in test [6] it was 0%. Also, the pest or weed control at 1000 g/ha in the test on Solanum nigrum (SOLNI) [7] came to 40%; in test [8] it was 60%; in test [9], 20%; in the test on Setaria faberi (SETFA) [10] it was 0%; in test [11] it was 50%; in test [12], 0%.
